Legend:
[1] = DPPH radical scavenging activity by direct EPR spectroscopy, with UV protector Oxybenzone (Example 5); settings: for percentage of trapped DPPH radicals: 0.5% aqueous solution, FIG. 4
Method: The radical scavenging activities (% inhibition) of aqueous solutions (0.5%) of Extract 1, Extract 2 (obtained according to Example 1), Oxybenzone, and 1:1 extract: Oxybenzon combinations (w/w) was evaluated by a DPPH test. A comparative DPPH analysis was carried out and the antioxidant potential of Extract 1, Extract 2, a commercial UV protector (Oxybenzone), as well as combinations of Extract 1 with Oxybenzone and of Extract 2 with Oxybenzone was compared. […] The method of direct EPR spectroscopy was used (Yordanov and Christova, 1997; Karamalakova, 2014). To measure DPPH radical scavenging capacity, 98% ethanolic solution of DPPH (80 mM, stock) was used, room temperature (22° C.), and Extract 1, Extract 2, Oxybenzone and the relevant combinations (at a concentration of 0.5%) were mixed and homogenized. The mixture was incubated in the dark, and examined for DPPH-H/R radicals generated in the system at the 1st, 5th and 10th minute. DPPH solution was used as an internal standard for the EPR signal (FIG. 4).

[2] = DPPH radical scavenging activity before and after 2.0 Gy gamma irradiation (Example 6); settings: 0.25% aqueous solution, FIG. 6
Method: The effect of combinations of the investigated extracts with the commercial radioprotector amifostine was also studied before and after gamma irradiation (FIG. 6). 2.0 Gy 60Co gamma radiation (y-rays) was performed in a water bath (37° C.) with a Rokus-M irradiator at 24 Gy/min.

[3] = system: human lymphocyte cultures; assay: Induced chromosomal aberrations test, before and after gamma irradiation (Example 8); type: cell-based; settings: non-irradiated blood cells; FIG. 8A
Text: The clastogenic activity and anticlastogenic potential of Extract 1 and Extract 2 (obtained according to Example 1), as well as of the clinically proven cytoprotective agent amifostine, were investigated alone and in combination on human lymphocyte cultures in vitro before and after exposure to ionizing radiation (y-rays) through tests for detection of induced chromosomal aberrations.
The study design included a total of 6 groups, including the untreated control. In each group, 5 blood donors were examined, and in each donor 100 metaphase plates obtained from lymphocyte cells from peripheral venous blood were analyzed for chromosomal aberrations, or a total of 500 metaphase plates for each group.
Cell cultures were prepared using the method of Evans H. J. for short-term culturing of peripheral blood lymphocytes and obtaining metaphase plates for chromosome aberration reading. Chromosome microscope slides were observed on an Olympus BX41 microscope at the most convenient magnifications—screening preparations at magnification 63 and detailed analysis of chromosomes for aberrations at magnification 1000. A minimum of 100 metaphases from each sample were analyzed. […] Exposure was calculated depending on the geometrical parameters of the irradiator, the distance and power of the source.

[4] = DPPH radical scavenging activity by direct EPR spectroscopy, with radioprotector amifostine (Example 6); settings: 0.5% aqueous solution, FIG. 5
Text: It has been proven that free radicals generated after exposure to gamma radiation are highly reactive and can trigger chain reactions leading to significant biological damage and increased oxidative stress. […] They are substances and compounds of synthetic or natural origin that allow the body's cells to withstand higher levels of radiation or can quickly eliminate the harmful genotoxic effects of such radiation and maintain human genome stability. […] (FIG. 5).

[5] = system: human lymphocyte cultures; assay: Cytokinesis-block micronucleus test, irradiated and non-irradiated blood (Example 7); type: cell-based; settings: non-irradiated blood cells; FIG. 7A
Text: The anticlastogenic potential of Extract 1 and Extract 2 (obtained according to Example 1), as well as of the clinically proven cytoprotective agent amifostine, was investigated individually and in combinations on human lymphocyte cultures in vitro before and after exposure to ionizing radiation (gamma rays) by micronucleus scoring tests. […] A compound is considered mutagenic when it increases the spontaneous frequency of the micronuclei (MN) in polychromatic erythrocytes or in lymphocytes. […] The cytokinesis-block micronucleus assay of Fenech, M. and A. Morley (1985) was used to analyze MN in binuclear lymphocytes from peripheral blood. The number of MN found in the examined 500 binuclear cells from cell cultures prepared with irradiated and non-irradiated peripheral venous blood taken from 5 healthy volunteers was investigated. The blood of the donors was exposed to 2.0 Gy 60Co gamma radiation (y-rays) in a water bath (37° C.) with a Rokus-M irradiator at 24 Gy/min. Exposure was calculated depending on the geometrical parameters of the irradiator, the distance and power of the source.

[6] = UVA and UVB light transmission (T %) of dilutions of Extract 2 (Example 4); type: physicochemical; settings: FIG. 3
Method: UVA and UVB light transmission (T %) was studied for different dilutions of Extract 2 (obtained according to Example 1 herein) with myconoside concentrations of 0.11 mg/ml, 0.055 mg/ml, 0.011 mg/ml, 0 0.0055 mg/ml, and 0.00275 mg/ml, as presented in FIG. 3.

COc1ccc(C(=O)c2ccccc2)c(O)c1 [Oxybenzone]
percentage of trapped DPPH radicals ([1]; 1st minute): 4.7% | percentage of trapped DPPH radicals ([1]; 5th minute): 3.2% | percentage of trapped DPPH radicals ([1]; 10th minute): 2.2% | antioxidant activity (in words) ([1]; 0.5%, Oxybenzone alone vs 1:1 combinations with extracts, p<0.001): very low antioxidant activity

NCCCNCCSP(=O)(O)O [amifostine]
percentage of trapped DPPH radicals ([2]; after 2.0 Gy gamma irradiation): 5.9% | percentage of trapped DPPH radicals ([2]; before gamma irradiation): 2.5% | clastogenic activity (frequency of aberrant cells) [3]: no clastogenic activity | percentage of trapped DPPH radicals ([4]; 1st minute): 5.1% | percentage of trapped DPPH radicals ([4]; 5th minute): 4.5% | percentage of trapped DPPH radicals ([4]; 10th minute): 3.9% | clastogenic activity (number of MN in 500 binuclear cells) [5]: lack of clastogenic activity

O=C(CCc1ccc(O)c(O)c1)O[C@H]1[C@H](O[C@H]2OC[C@](O)(CO)[C@H]2O)[C@@H](O)[C@H](OCCc2ccc(O)c(O)c2)O[C@@H]1CO[C@@H]1OC[C@](O)(CO)[C@H]1O [myconoside, [(2R,3R,4R,5R,6R)-4-[(2R,3R,4R)-3,4-dihydroxy-4-(hydroxymethyl)oxolan-2-yl]oxy-2-[[(2R,3R,4R)-3,4-dihydroxy-4-(hydroxymethyl)oxolan-2-yl]oxymethyl]-6-[2-(3,4-dihydroxyphenyl)ethoxy]-5-hydroxyoxan-3-yl]3-(3,4-dihydroxyphenyl)propanoate]
protection (UV radiation transmission) ([6]; maximum concentration of 0.11 mg/ml of myconoside (dilutions of Extract 2 of Example 1)): 100% | inhibition of UV radiation transmission ([6]; minimum concentration of 0.011 mg/ml of myconoside (dilutions of Extract 2 of Example 1)): 50%
